These results are taken from patent US8664271B2, “Stabilized leukotriene B4 (LTB4) agent pharmaceutical formulation” (LTB4 Sweden AB, priority 2004, dated 2014).

Data set [1] is described as follows: Stability of aqueous LTB4 Na salt solution at pH 7.4 with or without EDTA (HPLC impurities). It is filed as physicochemical. The following applies: aqueous solution 5 mg/ml. Here is the method:
LTB4 (acid form) was obtained from Cascade Biochem (U.K.) in solution in ethanol/water, 95/5. The purity level of this starting material was about 98.5% (+0.3%) as assessed by reverse phase HPLC. The ethanolic LTB4 solution was neutralized with an equivalent of sodium hydroxide to obtain LTB4 sodium (Na) salt. The ethanolic solution of LTB4 Na salt was evaporated to dryness under reduced pressure using a rotoevaporator and a water bath (30° C.), until an oily residue is obtained. The residue was redisolved in Dulbeccos' phosphate buffered saline (DPBS) at pH 7.4 containing or not, 0.01% ethylenediaminetetraacetic acid (EDTA) to obtain a final concentration of 5 mg LTB4/ml. Solutions were dispensed in 2 ml type I borosilicate glass vials which were then sealed under argon using Teflon-lined rubber stoppers and aluminium caps. The samples were stored in the dark at 25±5° C. until analysis at the indicated time points. Analysis of LTB4 solutions was carried out by reverse phase HPLC using a C18, 5μ particle, 4.7X250 mm column (Nucleosil) and methanol/acetronitrile gradient elution; detection of LTB4 and impurities was performed on line using an HPLC UV spectrophotometer at 270 nm.

A short description of data set [2]: Forced degradation of ethanolic solutions of LTB4 (acid form and Na salt). In kind it is physicochemical. On the procedure: The ethanolic solution of LTB4 (acid form) (EtOH/water, 95/5) obtained from the manufacturer (Cascade Biochem, UK) was diluted with EtOH/water, 95/5 to generate ethanolic solutions of LTB4 (acid form) at 9 and 0.9 mg/ml. Ethanolic solutions of the sodium salt of LTB4 at 9 and 0.9 mg/ml were obtained by adding 1.05 equivalent of sodium hydroxide. Solutions of the sodium salt of LTB4 at the concentration of 9 and 0.9 mg/ml in 75/25 EtOH/10 mM glycine in water at pH 10.5 (sodium hydroxide), were obtained by mixing 3 volumes of solutions of the sodium salt of LTB4 at 12 and 1.2 mg/ml in EtOH/water, 95/5 with 1 volume of 40 mM glycine buffer at pH 10.5. Solutions were dispensed in 2 ml vials for storage under air in the dark at −80° C. and 40±5° C. for 17 months prior to reverse phase HPLC analysis of LTB4 and impurities as described in Example 1.

As for `CCCCC/C=C\C[C@@H](O)/C=C/C=C/C=C\[C@@H](O)CCCC(=O)[O-].[Na+]` [LTB4 Na salt], the impurity level in data set [1] (DPBS pH 7.4, 0.01% EDTA, 60 days of storage at 25° C.) is reported as 2.9%; in data set [1] (DPBS pH 7.4, 0.01% EDTA, 90 days of storage at 25° C.) it was 8.6%; in data set [1] (DPBS pH 7.4, no EDTA, 14 days of storage at 25° C.), 23.3 % of LTB4 peak area; in data set [2] (0.9 mg/ml in 75/25 EtOH/10 mM glycine pH 10.5, 17 months at 40° C.) it was 4.3 % of AUC; in data set [2] (0.9 mg/ml in 95/5 EtOH/water, 17 months at 40° C.), 4.9 % of AUC; in data set [2] (9 mg/ml in 75/25 EtOH/10 mM glycine pH 10.5, 17 months at 40° C.), 3.8%. The “degradation” value in data set [1] (DPBS pH 7.4, 0.01% EDTA, up to 14 days of storage at 25° C.) is reported as “no increase of degradation”. In addition, the “level of impurities” value was “increased level of impurities” in data set [1] (DPBS pH 7.4, no EDTA, 7 days of storage at 25° C.) and 5.4 % of AUC in data set [2] (9.0 mg/ml in EtOH/water 95/5, 17 months at 40° C., AUC at 270 nm).
